pIC50: −log10 of the molar value.
Columns and labels:
[1] = biological target: Phosphatidylinositol 4,5-bisphosphate 3-kinase catalytic subunit alpha isoform (Homo sapiens, UniProt P42336); test: Inhibition of p110 alpha (unknown origin)
[2] = biological target: T1, Phosphatidylinositol 4,5-bisphosphate 3-kinase catalytic subunit delta isoform (Homo sapiens, UniProt O00329); test: Inhibition of p110 delta (unknown origin)
T1 sequence (O00329 whole entry): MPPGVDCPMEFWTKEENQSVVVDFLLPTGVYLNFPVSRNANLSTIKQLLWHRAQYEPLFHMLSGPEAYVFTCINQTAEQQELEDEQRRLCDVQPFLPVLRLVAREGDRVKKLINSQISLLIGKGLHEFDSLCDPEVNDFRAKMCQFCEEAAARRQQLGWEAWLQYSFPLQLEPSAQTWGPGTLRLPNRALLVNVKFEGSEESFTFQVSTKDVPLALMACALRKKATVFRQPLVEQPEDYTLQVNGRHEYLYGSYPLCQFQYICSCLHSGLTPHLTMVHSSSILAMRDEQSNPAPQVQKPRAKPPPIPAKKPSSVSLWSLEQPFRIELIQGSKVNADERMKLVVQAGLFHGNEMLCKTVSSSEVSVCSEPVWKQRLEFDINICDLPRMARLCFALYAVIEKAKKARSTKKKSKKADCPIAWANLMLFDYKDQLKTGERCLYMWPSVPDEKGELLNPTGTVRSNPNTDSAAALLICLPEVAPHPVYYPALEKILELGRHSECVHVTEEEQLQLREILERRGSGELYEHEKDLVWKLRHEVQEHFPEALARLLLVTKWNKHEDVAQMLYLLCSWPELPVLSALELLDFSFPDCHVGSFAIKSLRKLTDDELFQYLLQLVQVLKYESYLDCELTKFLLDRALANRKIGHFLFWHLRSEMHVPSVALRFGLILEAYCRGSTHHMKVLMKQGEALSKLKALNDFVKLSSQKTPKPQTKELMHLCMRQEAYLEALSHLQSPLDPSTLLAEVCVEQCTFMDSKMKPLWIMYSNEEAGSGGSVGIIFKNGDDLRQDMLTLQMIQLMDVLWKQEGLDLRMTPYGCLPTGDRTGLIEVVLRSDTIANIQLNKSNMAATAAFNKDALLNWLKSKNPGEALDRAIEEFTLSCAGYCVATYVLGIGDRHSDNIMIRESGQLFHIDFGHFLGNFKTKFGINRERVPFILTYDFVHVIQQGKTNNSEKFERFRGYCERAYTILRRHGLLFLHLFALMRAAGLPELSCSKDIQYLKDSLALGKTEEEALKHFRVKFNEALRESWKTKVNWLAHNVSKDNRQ

[3] = biological target: Phosphatidylinositol 4,5-bisphosphate 3-kinase catalytic subunit beta isoform (Homo sapiens, UniProt P42338); test: Inhibition of p110 beta (unknown origin)
Phosphatidylinositol 4,5-bisphosphate 3-kinase catalytic subunit beta isoform, sequence (P42338 whole entry, canonical isoform): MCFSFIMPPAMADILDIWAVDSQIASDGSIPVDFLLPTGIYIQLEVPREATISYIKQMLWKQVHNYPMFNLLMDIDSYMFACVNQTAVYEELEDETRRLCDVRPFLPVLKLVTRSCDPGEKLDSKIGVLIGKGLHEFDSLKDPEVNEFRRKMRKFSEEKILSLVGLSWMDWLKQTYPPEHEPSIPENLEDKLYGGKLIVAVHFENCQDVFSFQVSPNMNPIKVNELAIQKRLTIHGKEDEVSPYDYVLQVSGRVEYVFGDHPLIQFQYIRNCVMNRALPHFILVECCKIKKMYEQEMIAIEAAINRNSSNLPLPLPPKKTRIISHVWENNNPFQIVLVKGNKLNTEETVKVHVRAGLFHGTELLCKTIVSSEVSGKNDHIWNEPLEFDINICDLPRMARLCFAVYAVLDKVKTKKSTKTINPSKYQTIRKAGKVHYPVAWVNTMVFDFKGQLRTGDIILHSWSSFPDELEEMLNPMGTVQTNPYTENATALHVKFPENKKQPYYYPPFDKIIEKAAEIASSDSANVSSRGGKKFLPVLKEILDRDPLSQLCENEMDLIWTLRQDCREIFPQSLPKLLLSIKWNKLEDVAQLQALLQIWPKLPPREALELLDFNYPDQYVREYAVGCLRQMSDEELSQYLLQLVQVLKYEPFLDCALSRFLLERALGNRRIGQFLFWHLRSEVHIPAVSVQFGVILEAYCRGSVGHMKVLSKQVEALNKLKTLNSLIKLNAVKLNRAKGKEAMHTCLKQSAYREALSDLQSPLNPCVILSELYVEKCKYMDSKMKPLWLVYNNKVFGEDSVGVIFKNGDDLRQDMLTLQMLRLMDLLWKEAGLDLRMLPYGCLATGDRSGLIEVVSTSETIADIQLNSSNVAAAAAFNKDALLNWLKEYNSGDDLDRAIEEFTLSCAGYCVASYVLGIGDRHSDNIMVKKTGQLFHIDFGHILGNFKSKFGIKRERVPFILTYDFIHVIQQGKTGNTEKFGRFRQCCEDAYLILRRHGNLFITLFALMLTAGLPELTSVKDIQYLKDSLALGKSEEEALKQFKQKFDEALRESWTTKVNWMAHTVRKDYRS

OVCAR-8 = test: Growth inhibition of human OVCAR-8 cells assessed as reduction in cell viability incubated for 48 hrs by SRB assay; type: functional
SK-OV-3 = test: Growth inhibition of human SK-OV-3 cells assessed as reduction in cell viability incubated for 48 hrs by SRB assay; type: functional
RXF 631 = test: Growth inhibition of human RXF 631 cells assessed as reduction in cell viability incubated for 48 hrs by SRB assay; type: functional
NCI-H460 = test: Growth inhibition of human NCI-H460 cells assessed as reduction in cell viability incubated for 48 hrs by SRB assay; type: functional
[4] = biological target: Phosphatidylinositol 4,5-bisphosphate 3-kinase catalytic subunit gamma isoform (Homo sapiens, UniProt P48736); test: Inhibition of p110 gamma (unknown origin)
Phosphatidylinositol 4,5-bisphosphate 3-kinase catalytic subunit gamma isoform, sequence (P48736 whole entry, canonical isoform): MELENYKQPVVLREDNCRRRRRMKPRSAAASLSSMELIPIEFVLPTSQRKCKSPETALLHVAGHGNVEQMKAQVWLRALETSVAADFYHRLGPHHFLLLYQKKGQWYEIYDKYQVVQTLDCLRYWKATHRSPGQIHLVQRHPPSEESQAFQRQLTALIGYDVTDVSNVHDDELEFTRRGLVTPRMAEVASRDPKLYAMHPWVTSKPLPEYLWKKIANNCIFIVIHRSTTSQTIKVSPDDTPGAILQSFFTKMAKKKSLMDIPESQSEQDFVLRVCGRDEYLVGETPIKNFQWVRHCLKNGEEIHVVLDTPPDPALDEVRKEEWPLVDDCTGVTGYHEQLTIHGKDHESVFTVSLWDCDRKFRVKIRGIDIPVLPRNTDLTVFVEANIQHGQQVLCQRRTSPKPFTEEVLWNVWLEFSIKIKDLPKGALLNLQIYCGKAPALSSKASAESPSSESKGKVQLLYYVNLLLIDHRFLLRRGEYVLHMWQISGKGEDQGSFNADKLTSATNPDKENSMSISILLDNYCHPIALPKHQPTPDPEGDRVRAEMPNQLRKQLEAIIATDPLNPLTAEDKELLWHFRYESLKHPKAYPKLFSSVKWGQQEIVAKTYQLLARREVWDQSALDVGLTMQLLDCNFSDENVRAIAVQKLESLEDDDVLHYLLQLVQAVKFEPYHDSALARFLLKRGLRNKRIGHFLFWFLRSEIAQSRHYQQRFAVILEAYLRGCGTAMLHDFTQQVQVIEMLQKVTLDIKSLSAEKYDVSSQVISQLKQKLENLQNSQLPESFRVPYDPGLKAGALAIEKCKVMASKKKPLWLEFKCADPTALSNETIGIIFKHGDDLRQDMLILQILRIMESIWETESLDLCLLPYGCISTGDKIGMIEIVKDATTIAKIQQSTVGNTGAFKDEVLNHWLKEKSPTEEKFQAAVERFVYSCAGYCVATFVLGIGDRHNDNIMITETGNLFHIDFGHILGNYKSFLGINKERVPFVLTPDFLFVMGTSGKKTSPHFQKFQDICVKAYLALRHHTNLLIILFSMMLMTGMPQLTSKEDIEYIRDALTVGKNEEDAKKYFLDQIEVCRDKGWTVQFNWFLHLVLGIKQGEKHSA

Phosphatidylinositol 4,5-bisphosphate 3-kinase catalytic subunit alpha isoform, sequence (P42336 whole entry, canonical isoform): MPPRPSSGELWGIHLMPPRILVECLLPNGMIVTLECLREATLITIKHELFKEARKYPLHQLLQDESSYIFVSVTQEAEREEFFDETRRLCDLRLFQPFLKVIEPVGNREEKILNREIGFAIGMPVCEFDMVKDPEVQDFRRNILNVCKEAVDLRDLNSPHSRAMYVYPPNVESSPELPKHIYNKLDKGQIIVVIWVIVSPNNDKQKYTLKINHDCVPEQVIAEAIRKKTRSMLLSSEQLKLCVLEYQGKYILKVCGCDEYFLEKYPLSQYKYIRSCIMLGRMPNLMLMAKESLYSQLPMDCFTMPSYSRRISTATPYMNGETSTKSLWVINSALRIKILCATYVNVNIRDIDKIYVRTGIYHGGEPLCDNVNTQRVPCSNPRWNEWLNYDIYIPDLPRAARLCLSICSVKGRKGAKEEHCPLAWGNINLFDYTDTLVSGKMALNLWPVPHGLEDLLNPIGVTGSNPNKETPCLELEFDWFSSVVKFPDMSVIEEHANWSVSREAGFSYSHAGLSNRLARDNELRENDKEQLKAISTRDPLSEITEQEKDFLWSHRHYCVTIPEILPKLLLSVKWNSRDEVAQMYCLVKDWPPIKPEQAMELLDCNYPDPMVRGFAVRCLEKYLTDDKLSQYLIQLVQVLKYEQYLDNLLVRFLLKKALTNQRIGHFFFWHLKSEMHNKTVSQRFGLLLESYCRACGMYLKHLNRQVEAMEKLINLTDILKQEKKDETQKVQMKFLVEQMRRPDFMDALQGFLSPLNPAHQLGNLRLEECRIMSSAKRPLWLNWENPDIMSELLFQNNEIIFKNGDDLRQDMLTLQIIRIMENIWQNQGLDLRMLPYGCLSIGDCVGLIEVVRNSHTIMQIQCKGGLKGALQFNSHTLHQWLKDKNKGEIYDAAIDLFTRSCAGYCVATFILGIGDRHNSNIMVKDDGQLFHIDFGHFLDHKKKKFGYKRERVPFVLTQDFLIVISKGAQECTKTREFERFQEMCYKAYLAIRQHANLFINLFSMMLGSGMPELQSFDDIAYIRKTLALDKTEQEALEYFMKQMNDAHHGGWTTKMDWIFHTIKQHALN

| SMILES | pIC50 [3] | pIC50 [2] | pIC50 [4] | further results |
| --- | --- | --- | --- | --- |
| FC(F)c1nc2ccccc2n1-c1nc(N2CCOCC2)nc(N2CCOCC2)n1 [ZSTK-474] | – | – | – | GI50 (OVCAR-8): 1260 nM; GI50 (SK-OV-3): 398 nM; GI50 (RXF 631): 316 nM; GI50 (NCI-H460): 372 nM |
| COc1ccc(Cl)c(Nc2nc3ccccc3nc2NS(=O)(=O)c2cccc(NC(=O)C(C)(C)N)c2)c1 [PILARALISIB] | – | 7.44 | 7.64 | – |
| COc1ncc(-c2ccc3nccc(-c4ccnnc4)c3c2)cc1NS(=O)(=O)c1ccc(F)cc1F [OMIPALISIB] | – | – | 9.00 | – |

The next lines start with results.

| pIC50 [3] | SMILES | pIC50 [2] | pIC50 [4] | further results |
| --- | --- | --- | --- | --- |
| < 6.52 | C=CCN(/C=C1/C(=O)O[C@H](COC)[C@@]2(C)C1=C(O)C(=O)C1=C2[C@H](OC(C)=O)C[C@]2(C)C(=O)CC[C@@H]12)CC=C [SONOLISIB] | 8.52 | – | pIC50 [1]: 8.22 |
| 6.95 | COc1cc(Nc2nc3ccccc3nc2NS(=O)(=O)c2ccc(NC(=O)c3ccc(C)c(OC)c3)cc2)cc(OC)c1 | – | – | – |

— ChEMBL document CHEMBL5653604, “ZSTK474, a novel phosphatidylinositol 3-kinase inhibitor identified using the JFCR39 drug discovery system” (Acta Pharmacol Sin, 2010)
